{"source": "patent US12565665B2", "about": "“Compositions and methods for controlled mRNA translation and stability” (TRUSTEES OF BOSTON UNIVERSITY, priority 2022, dated 2026)", "key": {"Bcl-xL": {"test_system": "Bcl-xL", "experiment": "Drug response titration of Bad-BclxL iADAR system using A-1331852", "assay_type": "cell-based, human", "details": "ADAR-Bad-BclxL variant with point mutation F121L, drug added at transfection"}, "AlfaNb": {"target": "AlfaNb", "sequence (as listed by the source)": "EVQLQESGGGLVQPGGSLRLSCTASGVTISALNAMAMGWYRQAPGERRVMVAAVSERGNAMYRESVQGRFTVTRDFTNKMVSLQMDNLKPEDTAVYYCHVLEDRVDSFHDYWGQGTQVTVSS", "details": "cited from earlier work"}, "UAG-MS2 editing reporter [1]": {"test_system": "UAG-MS2 editing reporter", "experiment": "Stop codon editing reporter (mCherry / mNeonGreen) co-transfected with ADAR variants, flow cytometry (median mNeonGreen to mCherry)", "assay_type": "cell-based, human", "details": "for ADAR activity on mCherry-mNeonGreen reporter, no TEV protease: SpyTag / SpyCatcher ADAR variants", "source_text": "For the reporter system, the inventors used the fluorescent protein-epitope tag tandem fusions of mCherry-FLAG and HA-mNeonGreen as the upstream and downstream coding regions. Without DD editing activity, translation is terminated after mCherry-FLAG. Coexpression with MCP-ADAR2-DD was hypothesized to lead to binding of MCP-DD, stop codon UAG editing to UIG, and expression of mNeonGreen (FIG. 1B).\nHEK 293 FT cells were co-transfected with plasmids expressing the reporter containing 2 UAG stop codons in the hairpin and a pcDNA3 construct encoding a fusion protein composed of MCP, ADAR2-DD (E488Q), and TagBFP.\nTwo days later, fluorescence microscopy images were taken of the cell populations. […] The inventors repeated the experiment and analyzed the samples by flow-cytometry.\nThe inventors transiently co-transfected HEK 293 FT cells with the mCherry-mNeonGreen reporter, MCP-ADAR2-DD variants containing different configurations of ALFA-tag insertions and NbALFA fusions, and uncaging constructs containing miRFP670 fused to ALFA. Without wishing to be bound by theory, it was hypothesized that the intramolecular interaction would inhibit the ADAR2-DD, but that the ALFA tag on the miRFP670 would displace the lower strength ALFA variants (PE and 78), and perhaps at high enough concentrations displace the intramolecular ALFA, and lead to increased editing.\nThe inventors then made an ADAR-DD variant with an inserted TEV protease cut site (amino acids ENLYFQG, SEQ ID NO: 286) between the C-terminus of ADAR2-DD and the N-terminus of SpyCatcher (FIG. 5C). The inventors co-transfected HEK 293 FT cells with the reporter construct, the ADAR-DD TEVcs variant, and the TEV protease and 48 hours later analyzed the transfected cells via flow cytometry (FIG. 5D-5E).\nMutated versions were then cloned and co-transfected with an editing reporter in the absence and presence of A-1331852, and absolute background and fold change upon drug addition were determined by flow cytometry (see e.g., FIG. 22d and table 11)."}, "UAG-MS2 editing reporter [2]": {"test_system": "UAG-MS2 editing reporter", "experiment": "Stop codon editing reporter (mCherry / mNeonGreen) co-transfected with ADAR variants, fluorescence microscopy / ImageJ quantification", "assay_type": "cell-based, human", "details": "for ADAR editing of the reporter construct depending on fusion position of BAD / Bcl-xL: 50 ng reporter and 50 ng ADAR construct, with or without A-1331852"}, "AUA reporter": {"test_system": "AUA reporter", "experiment": "Creation of a START codon (AUA to AUI), EGFPd2/dTomato reporter, flow cytometry", "assay_type": "cell-based, human", "details": "48 hours post-transfection, n=3", "source_text": "To test this, an ADAR substrate was designed composed of a dsRNA hairpin containing both an AUA-codon with a mismatch at the second adenine to promote specific deamination to AUI (as opposed to IUA or IUI) and an MS2 operator motif (see e.g., FIG. 26b). The design of one large dsRNA hairpin was chosen to promote correct folding of RNA secondary structures. Previous studies have shown that MS2 operators in the 5′UTR of eukaryotic mRNA can lead to decreased translational efficiency when co-expressed with its corresponding coat protein (MS2 coat protein, or MCP), so high and low affinity variants of the MS2 operator (called here MS2-C and MS2-A respectively for the base at the stem loop) were tested with the idea that the lower affinity MS2-A loop would be less likely to inhibit translation by coat protein alone. As positive controls, the same loops were also designed with the correct AUG start codon.\nThese designs were cloned into pcDNA3 vectors containing a bidirectional CMV promoter driving constitutive dTomato and EGFPd2 (see e.g., FIG. 26c). The S′UTR and start codon of EGFPd2 were replaced with the editable start codon designs so the translational efficiency could be measured by looking at the EGFPd2 fluorescence relative to dTomato when co-expressed with MCP-ADAR. In this construct, if the correct start codon is skipped, the next AUG codon leads to a short, out of frame translation product.\nHEK293FT cells were co-transfected with each of the reporter constructs (MS2-C w/ AUG start, MS2-C w/ AUA start, MS2-A w/ AUG start, and MS2-A w/ AUA start) and either filler DNA, inactivated ADAR2-DD (E396A) fused to MCP (MCP-dADAR), or active ADAR2-DD (E488Q) fused to MCP (MCP-ADAR). 48 hours post-transfection, cells were lifted and analyzed by flow cytometry. Transfected cells were gated by dTomato, and the median EGFPd2-to-dTomato ratio for the population was calculated per replicate (n=3) by FLOWJO. 2-Way ANOVA was performed to determine significance."}, "GFP-GPI reporter": {"test_system": "GFP-GPI reporter", "experiment": "AUA to AUI editing creating upstream in-frame signal sequence and HA tag, live imaging and HA staining", "assay_type": "cell-based, human", "source_text": "To test this, a reporter construct was designed that contained: an MS2-A editable AUA start codon upstream of the murine IgGκ signal sequence and HA epitope tag (SS-HA), an in frame AUG start codon, GFP, and the glycosylphosphatidylinositol (GPI) anchor sequence from Thymocyte differentiation antigen 1 (GPI in diagram) (see e.g., FIG. 27a). With this reporter, in the absence of editing, the majority of the translated product will be from the AUG codon directly upstream of GFP. This will lead to the translation product residing in the cytoplasm with a non-functional GPI anchor (as this post-translational modification (PTM) must occur in the endoplasmic reticulum (ER) lumen). Upon ADAR editing of the upstream AUA to AUI, translation will initiate upstream of the signal sequence, leading to co-translational translocation of HA-GFP-GPI into the ER lumen, the addition of the GPI anchor PTM, and presentation of HA-GFP on the plasma membrane (see e.g., FIG. 27b). With this construct, the editing can be monitored by either by microscopy (looking for ER & plasma membrane localization) or directly by immunostaining for the HA-tag.\nHEK cells were co-transfected with the GFP-GPI reporter and either filler DNA, MCP-dADAR, or MCP-ADAR. A GFP-GPI with a functional start codon before the secretion signal was also transfected as a positive control (GFP-GPI Control). One day after transfection, HEK cells were imaged live, and then fixed and stained for HA tag with a primary anti-HA antibody and a secondary antibody that was conjugated to ALEXAFLUOR 647 (AF647)."}, "editable AUG reporters": {"test_system": "editable AUG reporters", "experiment": "Destruction of an AUG start codon to IUG, EGFPd2/dTomato reporter, flow cytometry", "assay_type": "cell-based, human", "details": "48 hours post-transfection; n=3", "source_text": "To test this, an ADAR substrate was designed similar to the substrates tested above, but with an AUG codon in a dsRNA hairpin with a mismatch to promote the deamination of the correct adenine (see e.g., FIG. 28b). This scheme was similarly tested with both the high affinity MS2-C and lower affinity MS2-A variants by cloning these substrates into a pcDNA3 vector with a bidirectional CMV driving the expression of dTomato and EGFPd2 (see e.g., FIG. 28c).\nHEK cells were co-transfected with the two different reporter constructs (MS2-C and MS2-A) and cither filler DNA, MCP-dADAR, or MCP-ADAR. 48 hours post-transfection, cells were lifted and analyzed by flow cytometry. Transfected cells were gated by dTomato, and the median EGFPd2-to-dTomato ratio for the population was calculated per replicate (n=3) by FLOWJO. 2-Way ANOVA was performed to determine significance."}}}
{"molecule": "Cc1c(-c2ccc(N3CCc4cccc(C(=O)Nc5nc6ccccc6s5)c4C3)nc2C(=O)O)cnn1CC12CC3CC(CC(C3)C1)C2", "note": "[A-1331852]", "values": [{"measurement": "concentration at which activation maxed out", "setting": "Bcl-xL; flow cytometry 48 hours", "value": "~30", "unit": "nM"}, {"measurement": "concentration at which the iADAR activated (as low as)", "setting": "Bcl-xL; flow cytometry 48 hours after transfection, n=3", "value": 1, "unit": "nM"}]}
{"molecule": "ALFA epitope tag, SRLEEELRRRLTE, SEQ ID NO: 85", "values": [{"measurement": "reported interaction strength with AlfaNb", "setting": "AlfaNb", "value": "picomolar"}]}
{"molecule": "MCP-linker-ADAR2(E396A & E488Q)-TagBFP [MCP-dADAR]", "values": [{"measurement": "Fold Change", "setting": "UAG-MS2 editing reporter [1]; 1 μM vs 0 μM A-1331852, flow cytometry, n=1", "value": 0.9649}, {"measurement": "Flow Cytometry Values, 0 μM (median of the ratio of mNeonGreen to mCherry)", "setting": "UAG-MS2 editing reporter [1]; HEK cells co-transfected with ADAR reporter and ADAR variant, 0 μM A-1331852, two days after transfection, gated by BFP, n=1", "value": 0.0049}, {"measurement": "Flow Cytometry Values, 1 μM (median of the ratio of mNeonGreen to mCherry)", "setting": "UAG-MS2 editing reporter [1]; HEK cells co-transfected with ADAR reporter and ADAR variant, 1 μM A-1331852, two days after transfection, gated by BFP, n=1", "value": 0.0047}, {"measurement": "mNeonGreen expression, fluorescence microscopy", "setting": "UAG-MS2 editing reporter [2]; HEK 293 FT cells co-transfected with reporter containing 2 UAG stop codons in the hairpin, two days after transfection", "value": "minimal mNeonGreen fluorescence"}, {"measurement": "effect on translational efficiency from a native AUG start codon, MS2-A substrate", "setting": "AUA reporter", "value": "more modest negative effect on translational efficiency"}, {"measurement": "relative fluorescence (EGFPd2-to-dTomato) of MS2-C reporters compared with filler DNA (NT)", "setting": "AUA reporter; 2-Way ANOVA", "value": "significantly decreased the relative fluorescence"}, {"measurement": "HA tag staining of cells with AUA construct", "setting": "GFP-GPI reporter; fixed, permeabilized, anti-HA and AF647 secondary", "value": "not much staining"}, {"measurement": "cellular distribution of GFP from AUA-SS-GFP-GPI, live imaging", "setting": "GFP-GPI reporter; one day after transfection", "value": "more cytoplasmic distribution"}, {"measurement": "translational efficiency, MS2-A based AUG construct", "setting": "editable AUG reporters", "value": "significant decrease in translational efficiency"}]}
{"molecule": "MCP-linker-ADAR2-DDN-SpyTag- ADAR2(E488Q)-DDC-TEVcs-SpyCatcher-TagBFP [ADAR-DD TEVcs variant]", "values": [{"measurement": "induced ADAR activity with TEV protease", "setting": "UAG-MS2 editing reporter [1]; co-transfected TEV protease, flow cytometry 48 hours later", "value": "close to that of the non-engineered ADAR2-DD"}, {"measurement": "dependence of ADAR activity on TEV protease", "setting": "UAG-MS2 editing reporter [1]; co-transfected with or without TEV protease, flow cytometry 48 hours later", "value": "only active with the addition of TEV protease"}]}
{"molecule": "MCP-linker-ADAR2-DDN-SpyTag- ADAR2(E488Q)-DDC-TagBFP -P2A-T2A-SpyCatcher [T2A-SpyCatcher variant]", "values": [{"measurement": "ADAR activity on mCherry-mNeonGreen reporter, no TEV protease", "setting": "UAG-MS2 editing reporter [1]; flow cytometry", "value": "activity was seen"}]}
{"molecule": "MCP-linker-ADAR2-DDN-SpyTag- ADAR2(E488Q)-DDC-TagBFP [SpyTag variant]", "values": [{"measurement": "ADAR activity on mCherry-mNeonGreen reporter, no TEV protease", "setting": "UAG-MS2 editing reporter [1]; flow cytometry", "value": "activity was seen"}]}
{"molecule": "MCP-linker-BAD-ADAR2-DD(E488Q)-Bcl-xL-TagBFP [BAD-DD-BclxL]", "values": [{"measurement": "ADAR editing of the reporter construct depending on fusion position of BAD / Bcl-xL", "setting": "UAG-MS2 editing reporter [2]; HEK cells, two days, n=1", "value": "drug-dependent allostery"}, {"measurement": "fold change with A-1331852, N-terminal BAD fusion system", "setting": "UAG-MS2 editing reporter [2]; HEK cells, absence or presence of A-1331852, two days, n=1", "value": 5.9, "unit": "×"}, {"measurement": "background in the absence of drug compared with the loop insertion conformation", "setting": "UAG-MS2 editing reporter [2]; N-terminal BAD, C-terminal Bcl-xL, n=1", "value": "significantly higher"}]}
{"molecule": "MCP-linker-BAD-ADAR2-DD(E488Q)-TagBFP [BAD-DD]", "values": [{"measurement": "ADAR editing of the reporter construct depending on fusion position of BAD / Bcl-xL", "setting": "UAG-MS2 editing reporter [2]; HEK cells, two days, n=1", "value": "did not affect ADAR editing of the reporter construct"}]}
{"molecule": "MCP-linker-BclxL-linker-ADAR2-DDN-Bad(L)-ADAR2(E488Q)-DDC-TagBFP [BclxL-nDD-BAD-cDD]", "values": [{"measurement": "ADAR editing of the reporter construct depending on fusion position of BAD / Bcl-xL", "setting": "UAG-MS2 editing reporter [2]; HEK cells, two days, n=1", "value": "did not inhibit the enzymatic activity"}]}
{"molecule": "lower affinity ALFA epitope variant, GRLEEELRRRLSP, SEQ ID NO: 86 [ALFA-PE]", "values": [{"measurement": "reported interaction strength with AlfaNb", "setting": "AlfaNb", "value": "nanomolar"}]}
